These results are taken from patent US20030216569A1, “Method of making HIV protease inhibitors” (priority 1993, published 2003).

Where a name gives a salt, the structure may show the parent alone. Read-outs that look alike come from different tables or passages of the source.

Assay [1] concerns Viral SN123 infected CEM cells. The following applies: CEM cells, tested as the mesylate salt.
Procedure: Purpose: To determine IC50 CC50 for compounds:
Media A [1% DMSO] (100 microliters DMSO+9.9 ml media A)
CEM cells @ [1×10^4] cells/ml (4 plate=40 ml) (6 plate=60 ml)
(need 70 microliters of each)
A-D at [10 mM] in 100% DMSO
4 or 6 u-bottom 96-well plates
4 flat bottom 96-well plates for dilutions
8-10 boxes of sterile costar tips
Approximately 10 reagent trays
1000 cells/well=1×10^4 cells/ml=1000 cells/100 microliters 200 microliters=total volume in a well
Cell Preparation and Plating of Cells, Media A and Media A (1% DMSO)
a. Number a 96-well tissue culture plate for each compound tested, one for a control plate, and one for the control compound.
b. Count cells on hemacytometer and resuspend them in 40 ml or 80 ml of Media A at a concentration of [1×10^4]0 cells/ml.
Counting Cells on a Hemacytomer:
Label two 1.8 ml nuc tubes 1 and 2.
Put 0.5 ml of well mixed CEM cells (in growth phase) in tube 1.
Put 50 micoliters PBS and 40 microliters of trypan blue into tube 2.
Mix up the cells in tube 1 then remove 10 microliters of cells and put them into tube 2.
Mix well in tube 2, then remove 10 microliters of the stained cells and put them on the hemacytometer.
Count the number of cells in the center square of the hemacytometer with the microscope set on 10×.
The concentration of the stock CEM's in cells/ml is as follows:
Cells counted×1×10^5=Concentration of CEM's in [cells/ml].
c. Add 200 microliters Media A to: A1 of places 2-6. These are Blanks. A4-H4 of plate 1. These are Blanks.
d. Add 5 microlicers Media A to all wells of Rows A-D of plates 2-6 except A1 (the top half of each plate).
e. Add 50 microliters of Media A to wells A1-D3 of Plate 1 (the top half of the plate).
f. Add 50 microliters Media A[l% DMSO] to all wells of Columns 1-3 of plate 1.
This puts 1000 cells/well.
h. Put plates in an incubator while doing drug dilutions.
Preparation Control and Test Drugs
(1) Put 60 microliters of DMSO into all wells of Columns 2-12, Rows A-E.
(3) Put 70 microliters of A [10 mM] at 100% DMSO into well B1.
(4) Put 70 microliters of B [10 mM] at 100% DMSO into well C1.
(5) Put 70 microliters of C [10 mM] at 100% DMSO into well D1.
(6) Put 70 microliters of D [10 mM] at 100% DMSO into well E1.
Change tips before each dilution.
(1) In rows A-E of another plate make a row for the first 1:10 dilution to correspond to each compound's 100% DMSO row.
A into Row B for the first 1:10 dilution.
B into Row C for the first 1:10 dilution.
C into Row D for the first 1:10 dilution.
D into Row E for the first 1:10 dilution.
(2) Put 180 microliters of media A into all wells of rows A-E corresponding to the 100% DMSO rows. 2.5 ml needed per row.
(3) Remove 20 microliters from all wells of each row of the 100% DMSO rows and transfer it to the corresponding 1:10 row.
(1) Make a plate for every 3 compounds to be tested.
Use 20 ml of media A per plate.
(3) Transfer 25 microliters of each compound from the row in the 1:10 dilution to the corresponding two rows on the 1:100 dilution plate changing tips before each transfer.
Addition of Viral SN123 to Plates
a. Thaw Sn123 in 37° C. water bath for approximately 10 minutes.
b. Dilute Sn123 1:16 by adding 1 ml of Sn123 to 15 ml of media A.
c. Add 50 microliters of Sn123 [1:16] to wells E1-H12 of plates 2-6 and to wells E1-H3 of plate 1.
Addition of Drugs to Plates
a. Add 50 microliters of the control and test drugs from the rows in the 1:100 dilution plates to the appropriate rows in the final plates (changing tips before each transfer). One row in the 1:100 plate will do 4 rows in the final plate. Leave A1 blank.
b. Incubate all plates 7 days at 37° C. 5% CO2.
c. Do Xtt protocol on day 7 as follows:
d. Preparation of Xtt/PMS Solution: (4 plate=20 ml) (6 plate=30 ml)
100 microliters [100 mM] PMS+4.9 ml PBS=PMS at [2 mM]
(2) Heat 500 ml of H2O in microwave for 5 minutes on high.
(3) Put 20 or 30 ml of phenol red RPMI in a 50 ml centrifuge tube.
(4) Put the RPMI in the beaker of hot water.
(5) Add 20 or 30 mg of XTT to the warmed up RPMI.
The target of a further assay is HIV-1 protease (Human immunodeficiency virus type 1 group M subtype B, UniProt P04585). The experiment in a line: Fluorescence HIV-1 Protease Inhibitor Assay (Pandex). It is filed as biochemical. On the set-up: made in house; host or cells: E. coli K12 L507/pHP10D (NRRL B-18560). How it is done:
A. Preparation of Protease and Gag Fractions
Lyophils of E. coli K12 L507/pHP10D were obtained from the Northern Regional Research Laboratory, Peoria, Ill. 61604, under the accession number NRRL B-18560 (deposited Nov. 14, 1989). The lyophils were decanted into tubes containing 10 ml LB medium (10 g Bacto-tryptone, 5 g Bacto-yeast extract, and 10 g aqueous sodium chloride per liter; the pH was adjusted to 7.5 and incubated at 32° C. overnight).
A small portion of the overnight culture was placed on LB-agar (LB medium with 15 g/L Bacto-agar) plates containing 12.5 micrograms/ml tetracycline in a manner so as to obtain a single colony isolate of E. coli K12 L507/pHP10D. The single colony obtained was inoculated into 10 ml of LB medium containing 12.5 micrograms/ml tetracycline and incubated overnight at 32° C. with vigorous shaking. The 10 ml overnight culture was inoculated into LB medium containing 12.5 micrograms/ml tetracycline and incubated at 32° C. with vigorous shaking until the culture reached mid-log phase. […]
3. Preparation of Protease Fraction
A culture of E. coli K12 L507/pHP10D was grown to mid-log phase at 32° C. in LB media containing 12.5 micrograms/ml tetracycline. The cultivation temperature was quickly elevated to 40° C. to induce gene expression, and the cells were allowed to grow for 2.5 hours at this temperature before the culture was quickly chilled on ice. The cells were centrifuged and the cell pellet was resuspended in 20 ml of 50 mmol MES buffer (pH 6.0) containing 1 mmol EDTA, 1 mmol DTT, 1 mmol PMSF and 10% glycerol (“Buffer A”). Cells were lysed by sonication using a Fischer Model 300 Dismembrator and a microtip probe. Following centrifugation at 27,000×g, the supernatant was diluted to a total volume of 60 ml with Buffer A and loaded onto a 2.0×19 cm QAE-Sepharose column (1 ml/min, 4° C.), that had been equilibrated in Buffer A. The column was washed isocratically for 180 min and then eluted with a gradient eluent of […] aqueous sodium chloride in Buffer A over 120 min. Enzymatic activity was measured by HPLC using the synthetic peptide Ser-Gln-Asn-Tyr-Pro-Ile-Val as described in Margolin et al., Biochem. Biophys. Res. Commun., 167, 554-560 (1990); the production of the p1 peptide (Ser-Gln-Asn-Tyr) was measured.
The active fractions were combined, adjusted to […] 1.2M in ammonium sulfate, and applied to a 2.0×18 cm hexyl agarose column that had been equilibrated in Buffer A containing 1.2M ammonium sulfate. The sample was loaded at a flow rate of 1 ml/min at 4° C., washed with the equilibration buffer for 240 min (1 ml/min) and then eluted using a reverse linear gradient of 1.2-0M ammonium sulfate in Buffer A for 120 min at the same flow rate. The column was then washed isocratically in Buffer A for 120 min.
The active fractions were combined, concentrated to 10 ml using an Amicon stirred cell with a YM-10 membrane and then applied to a MonoS cation exchange column (1.0×10 cm) that had been equilibrated in Buffer A. The sample was loaded at a flow rate of 1 ml/min at 25° C. After washing isocratically for 30 min, the protease was eluted using a linear gradient of 0-0.45M aqueous sodium chloride in Buffer A over 40 min. The column was washed isocratically in Buffer A containing 0.45M aqueous sodium chloride for 30 minutes.
The active fractions were combined and concentrated to 200 microliters using an Amicon stirred cell and a YM-10 membrane and then the protease was applied to a Superose 6 size exclusion column equilibrated in Buffer A containing 0.1M aqueous sodium chloride.

Setting [2] is: normalized to positive control (=1.0), * = a calculated average.
The mark [3] stands for this setting: normalized to positive control (=1.0), * = a calculated average, read-out: Fluorescence Assay IC50 in ng/mL (converted).
The mark [4] stands for this setting: value as run, 35B value of the same run in footnote or parentheses.

The IC90 is the concentration at which the effect reaches the 90% level. Consider `Cc1c(O)cccc1C(=O)NC(Cc1ccccc1)C(O)CN1CC2CCCCC2CC1C(=O)NC(C)(C)C` (stereo not drawn) [Example 28, [3S-(3R*,4aR*,8aR*,2′S*,3′R*)]-2-[2′-Hydroxy-3′-phenylmethyl-4′-aza-5′-oxo-5′-(2″-methyl-3″-hydroxyphenyl)pentyl] decahydroisoquinoline-3-N-t-butylcarboxamide monomesylplate salt], for which the IC50 in assay [1] (read-out: Whole cell IC50 nM) came out at 35.7 nM. In addition, the IC90 in assay [1] (read-out: Whole cell IC90 nM) was 91.8 nM.

Consider `CC(C)(C)NC(=O)[C@@H]1C[C@@H]2CCCC[C@@H]2CN1C[C@@H](O)[C@H](Cc1ccccc1)NC(=O)C1CCS(=O)(=O)C1` (relative stereo) [Example 88, [3S-(3R*, 4aR*, 8aR*, 2′S*, 3′R*)]-2-[2′-Hydroxy-3′-phenylmethyl-4′-aza-5′-oxo-5′-(tetrahydrothieno-3″-yl-1″,1″-dioxide)pentyl]-decahydroisoquinoline-3-N-t-butyl carboxamide], for which the “Pandex % at 20 ng/ml” value at HIV-1 protease (at 20 ng/ml) was 28%.

Take `Cc1c(O)cccc1C(=O)N[C@H](CSc1ccc2ccccc2c1)[C@H](O)Cc1ccccc1C(=O)NC(C)(C)C` (relative stereo) [Example 46, [2′R-(2′R*,3′S*)]-N-t-Butyl-2-[2′-hydroxy-3′-naphth-2-ylthiomethyl-4′-aza-5′-oxo-5′-(2″-methyl-3″-hydroxyphenyl)pentyl] benzamide]: at HIV-1 protease (setting [2]), the “Fluorescence Assay IC50” value is 0.063 µg/mL.

In the case of `COc1cccc(C(=O)NC(Cc2ccccc2)C(O)CN2CC3CCCCC3CC2C(=O)NC(C)(C)C)c1C` (stereo not drawn) [Example 13, [3S-(3R*,4aR*,8aR*,2′S*,3′R*)]-2-[2′-Hydroxy-3′-phenylmethyl-4′-aza-5′-oxo-5′-(2″-methyl-3″-methoxyphenyl)pentyl] decahydroisoquinoline-3-N-t-butylcarboxamide], the IC50 on HIV-1 protease (setting [3]) was 629 nM.

Regarding `Cc1ccc(O)cc1C(=O)N[C@H](CSc1ccc2ccccc2c1)[C@H](O)Cc1ccccc1C(=O)NC(C)(C)C` (relative stereo) [Example 72, [2′R-(2′R*,3′S*)]-N-t-Butyl-2-[2′-hydroxy-3′-naphth-2-ylthiomethyl-4′-aza-5′-oxo-5′-(2″-methyl-5″-hydroxyphenyl)pentyl] benzamide], on HIV-1 protease (setting [2]), the “Fluorescence Assay IC50” value is 0.63 µg/mL.

As for `Cc1c(O)cccc1C(=O)N[C@@H](Cc1ccccc1)[C@H](O)Cc1ccccc1C(=O)NC(C)(C)C` [Example 40, [2R′-(2R′*,3′S*)]-N-t-Butyl-2-[2′-hydroxy-3′-phenylmethyl-4′-aza-5′-oxo-5′-(2″methyl-3″-hydroxyphenyl)pentyl]benzamide], at HIV-1 protease (setting [3]), the IC50 was 21.1 nM.

In the case of `CC(C)(C)NC(=O)c1ccccc1CC(O)C(CSc1ccc2ccccc2c1)NC(=O)c1cccc(Cl)c1Cl` (stereo not drawn) [Example 54, [2′R-(2′R*,3′S*)]-N-t-Butyl-2-[2′-hydroxy-3′-naphth-2-ylthiomethyl-4′-aza-5′-oxo-5′-(2″,2″-dichlorophenyl)pentyl] benzamide], on HIV-1 protease (setting [3]), the IC50 is 129 nM.

`CC(C)(C)NC(=O)[C@@H]1C[C@@H]2CCCC[C@@H]2CN1C[C@@H](O)[C@H](Cc1ccccc1)NC(=O)c1ccsc1` (relative stereo) [Example 87, [3S-(3R*, 4aR*, 8aR*, 2′S*, 3′R*)]-2-[2′-Hydroxy-3′-phenylmethyl-4′-aza-5′-oxo-5′-(thieno-3″-yl)pentyl]-decahydroisoquinoline-3-N-t-butyl carboxamide]: the “Pandex IC50 (given as % at concentration)” value on HIV-1 protease (at 1,000 ng/ml) was 25%.

As for `CC(C)(C)NC(=O)c1ccccc1C[C@@H](O)[C@H](CSc1ccc2ccccc2c1)NC(=O)c1cccc2ncccc12` (relative stereo) [Example 63, [2′R-(2′R*,3′S*)]-N-t-Butyl-2-[2′-hydroxy-3′-naphth-2-ylthiomethyl-4′-aza-5′-oxo-5′-(quinolin-5″-yl)pentyl] benzamide], the IC50 on HIV-1 protease (setting [3]) is 433 nM.

As to `Cc1c(C(=O)N[C@@H](Cc2ccccc2)[C@H](O)CN2C[C@H]3CCCC[C@H]3C[C@H]2C(=O)NC(C)(C)C)cc[nH]c1=O` (relative stereo) [Example 16, [3S-(3R*,4aR*,8aR*,2′S*,3′R*)]-2-[2′-Hydroxy-3′-phenylmethyl-4′-aza-5′-oxo-5′-(2″-oxo-3″-methyl-pyrid-4″-yl)pentyl] decahydroisoquinoline-3-N-t-butylcarboxamide], the “Fluorescence Assay IC50” value at HIV-1 protease (setting [2]) is 0.329 µg/mL. Moreover, on HIV-1 protease (setting [4]), the “Pandex IC50 ng/ml” value is on record as 125^e ng/ml.

In the case of `CC(C)(C)NC(=O)[C@@H]1C[C@@H]2CCCC[C@@H]2CN1C[C@@H](O)[C@H](CSc1ccccc1)NC(=O)[C@H]1CS(=O)(=O)CN1` (relative stereo) [[3S-(3R*, 4aR*, 8aR*, 2′S*, 3′S*, 4″S)]-2-[2′-Hydroxy-3′-phenylthiomethyl-4′-aza-5′-oxo-5′-(thiazolino-4″-yl-1″,1″-dioxide)pentyl]-decahydroisoquinoline-3-N-t-butyl carboxamide], the “Pandex IC50” value on HIV-1 protease (setting [4]) is 0.244 µg/mL.

Regarding `CC(C)(C)NC(=O)c1ccccc1C[C@@H](O)[C@@H](CSc1ccc2ccccc2c1)NC(=O)c1cccc(O)c1Cl` (relative stereo) [Example 56, [2′R-(2′R*,3′S*)]-N-t-Butyl-2-[2′-hydroxy-3′-naphth-2-ylthiomethyl-4′-aza-5′-oxo-5′-(2″-chloro-3″-hydroxyphenyl)pentyl] benzamide], at HIV-1 protease (setting [2]), the “Fluorescence Assay IC50” value is 0.094 µg/mL.

In the case of `CC(C)(C)NC(=O)c1ccccc1C[C@@H](O)[C@H](Cc1ccccc1)NC(=O)c1cccc2c1CCNC2` [Example 60, [2′R-(2′R*,3′S*)]-N-t-Butyl-2-[2′-hydroxy-3′-phenylmethyl-4′-aza-5′-oxo-5′-(1″,2″,3″,4″-tetrahydroisoquinolin-5″-yl)pentyl] benzamide], the IC50 at HIV-1 protease (setting [3]) was 801 nM.

`CC(C)(C)NC(=O)c1ccccc1C[C@@H](O)[C@@H](CSc1ccc2ccccc2c1)NC(=O)c1cccc(O)c1` (relative stereo) [Example 51, [2′R-(2′R*,3′S*)]-N-t-Butyl-2-[2′-hydroxy-3′-naphth-2-ylthiomethyl-4′-aza-5′-oxo-5′-(3″-hydroxyphenyl)pentyl] benzamide]: at HIV-1 protease (setting [2]), the “Fluorescence Assay IC50” value is 0.5 µg/mL.

For the compound `CNc1cccc(C(=O)N[C@H](CSc2ccc3ccccc3c2)[C@H](O)Cc2ccccc2C(=O)NC(C)(C)C)c1C` (relative stereo) [Example 43, [2′R-(2′R*,3′S*)]-N-t-Butyl-2-[2′-hydroxy-3′-naphth-2-ylthiomethyl-4′-aza-5′-oxo-5′-(2″-methyl-3″N(methyl)aminophenyl)pentyl] benzamide], the “Fluorescence Assay IC50” value on HIV-1 protease (setting [2]) is 0.54 µg/mL.

Turning to `Cc1ccc(O)c(C)c1C(=O)NC(CSc1ccccc1)C(O)CN1CC2CCCCC2CC1C(=O)NC(C)(C)C` (stereo not drawn) [Example 39, [3S-(3R*,4aR*,8aR*,2′S*,3′S*)]-2-[2′-Hydroxy-3′-phenylthiomethyl-4′-aza-5′-oxo-5′-[2″,6″-dimethyl-3″-hydroxyphenyl)pentyl] decahydroisoquinoline-3-N-t-butylcarboxamide], the IC50 is 9.11 nM at HIV-1 protease (setting [3]) and 13.7 nM on HIV-1 protease (value as run, 35B value of the same run in footnote or parentheses, read-out: Pandex IC50 ng/ml (converted)).
